# Test results taken from PubChem BioAssay (NCI).
#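 A five-concentration, 48-hour dose response in 96-well plates underlies each endpoint, interpolated linearly between surrounding concentrations. TGI denotes the concentration required for complete inhibition of growth.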
# Key:
# Assay in all cases: NCI tumour cell line growth inhibition, 48 h
# 786-0 renal = test system: 786-0 renal
# CAKI-1 renal = test system: CAKI-1 renal
# HCT-15 colon = test system: HCT-15 colon
# HOP-92 NSCLC = test system: HOP-92 NSCLC
# HT29 colon = test system: HT29 colon
# IGROV1 ovarian = test system: IGROV1 ovarian
# K-562 leukemia = test system: K-562 leukemia
# KM12 colon = test system: KM12 colon
# MCF7 breast = test system: MCF7 breast
# MDA-MB-435 = test system: MDA-MB-435
# OVCAR-4 ovarian = test system: OVCAR-4 ovarian
# OVCAR-5 ovarian = test system: OVCAR-5 ovarian
# RPMI-8226 leukemia = test system: RPMI-8226 leukemia
# RXF 393 renal = test system: RXF 393 renal
# SF-268 CNS = test system: SF-268 CNS
# SNB-19 CNS = test system: SNB-19 CNS
# SW-620 colon = test system: SW-620 colon
# UACC-62 melanoma = test system: UACC-62 melanoma
# SR leukemia = test system: SR leukemia
Compound,TGI (786-0 renal) [µM],TGI (CAKI-1 renal) [µM],TGI (HCT-15 colon) [µM],TGI (HOP-92 NSCLC) [µM],TGI (HT29 colon) [µM],TGI (IGROV1 ovarian) [µM],TGI (K-562 leukemia) [µM],TGI (KM12 colon) [µM],TGI (MCF7 breast) [µM],TGI (MDA-MB-435) [µM],TGI (OVCAR-4 ovarian) [µM],TGI (OVCAR-5 ovarian) [µM],TGI (RPMI-8226 leukemia) [µM],TGI (RXF 393 renal) [µM],TGI (SF-268 CNS) [µM],TGI (SNB-19 CNS) [µM],TGI (SW-620 colon) [µM],TGI (UACC-62 melanoma) [µM],TGI (SR leukemia) [µM]
C[C@H](CCC(=O)O)[C@H]1CC[C@H]2[C@@H]3[C@H](O)[C@H](O)[C@@H]4C[C@H](O)CC[C@]4(C)[C@H]3CC[C@]12C,> 100,> 100,> 100,> 100,> 100,> 100,> 100,> 100,> 100,> 100,> 100,> 100,> 100,> 100,> 100,> 100,> 100,> 100,–
CC1CN=C(N(C(=O)Nc2ccc(Cl)cc2)c2cccc(Cl)c2)S1 (stereo unspecified),> 100,> 100,> 100,65.4,> 100,> 100,–,> 100,> 100,–,> 100,> 100,–,–,> 100,> 100,> 100,–,> 100
O=C1C2CCCC2N1Cc1ccccc1 (stereo unspecified),> 100,> 100,> 100,> 100,> 100,> 100,> 100,> 100,> 100,> 100,> 100,> 100,> 100,> 100,> 100,–,> 100,> 100,–
Cc1ccc(N2C=Nn3c(nc4sc5c(c4c3=O)CCCC5)C2)cc1,> 100,> 100,> 100,> 100,> 100,> 100,> 100,> 100,> 100,> 100,> 100,> 100,> 100,> 100,> 100,> 100,> 100,> 100,–
CCc1cc2c(cc1C(=O)CCC(=O)O)CC1(C2)Cc2cc(CC)c(C(=O)CCC(=O)O)cc2C1,> 100,> 100,> 100,> 100,> 100,> 100,> 100,> 100,> 100,> 100,> 100,> 100,> 100,> 100,> 100,> 100,> 100,–,–
CCOP(=O)(OCC)/C(=C\n1ccc(=O)[nH]c1=S)C(=O)OC,> 100,> 100,> 100,–,> 100,> 100,> 100,> 100,> 100,> 100,> 100,> 100,> 100,> 100,> 100,–,> 100,> 100,> 100
